In PMC4858447 (ACS chemical biology, 2015):
Like-named read-outs stand apart in the source and are kept apart here.

Legend:
[1] = tested on: hepatocytes; settings: 10 μM compound; cited from earlier work
[2] = read-out: EC50 in five cellular assays; ChEMBL search; targets unknown; cited from earlier work
[3] = biological target: 5FW-Brd4 (first bromodomain of Brd4) (Homo sapiens, UniProt O60885); test: Protein-observed 19F NMR; format: binding; settings: for Brd4 19F NMR: 100 μM compound, 50 μM Brd4 and BPTF, 1% DMSO; for binding to Brd4 (in words): PrOF NMR
[4] = Cell viability assay; format: cell-based, human; settings: human, HEK 293T cells
[5] = tested on: HEK 293T cells; test: Cell viability assay; format: cell-based, human; settings: 24 hours at 3 and 10 μM
[6] = biological target: 5FW-BPTF bromodomain (Homo sapiens, UniProt Q12830); test: Protein-observed 19F NMR; format: binding; settings: for BPTF 19F NMR: 100 μM compound, 50 μM Brd4 and BPTF, 1% DMSO; for selectivity between BPTF and Brd4 by PrOF NMR (in words): dual screen
[7] = tested on: BPTF-regulatory region upstream of Mobkl3 promoter in Eph4 cells; test: pGL3_Mobkl3p luciferase reporter assay; format: cell-based, mouse; settings: 5 μM for 12 hours, pGL3_Mobkl3p vector
[8] = biological target: T1, Brd4 (Homo sapiens, UniProt O60885); test: Fluorescence anisotropy competition against bound BODIPY-BI2536; format: binding
[9] = biological target: T1, Brd4; test: Differential scanning fluorimetry; format: binding; settings: DSF, 100 μM inhibitor, 4 μM Brd4

Row | Brd4 19F NMR [3] | BPTF 19F NMR [6] | selectivity between BPTF and Brd4 by PrOF NMR (in words) [6] | SMILES | other results
1 | - | +++ |  | COC(=O)c1cccc(NC(=O)NC2CCN(c3ccnc(Nc4ccc(F)cc4)n3)C2)c1 (stereo not drawn) [AU1] | cellular toxicity in hepatocytes [1]: did not detect cellular toxicity; EC50 [2]: 500 nM; binding to Brd4 (in words) [3]: No binding is detected; viability at 48 h, 10 µM [4]: 76%; cellular toxicity against HEK 293T cells [5]: no cellular toxicity; loss of luciferase activity [7]: ~ 4 fold
2 | +++ | +++ |  | CCn1c(-c2nonc2N)nc2c(-c3ccccc3)ncc(OCCCN)c21 [GSK260205A] | 
3 |  |  |  | O=C(Nc1ccc2c(c1)OCO2)NC1CCN(c2ccnc(Nc3ccc(F)cc3)n2)C1 (stereo not drawn) [GSK1379724A] | binding to Brd4 (in words) [3]: unable to bind; binding to BPTF (in words) ([6]; PrOF NMR): unable to bind
4 | - | +++ | completely selective for BPTF over Brd4 | COC(=O)c1cccc(NC(=O)NC2CCN(c3ccnc(Nc4ccc(OC)cc4)n3)C2)c1 (stereo not drawn) [GSK1379746A] | 
5 | +++ | +++ |  | COC(=O)c1cccc(NC(=O)NC2CCN(c3ccnc(Nc4cc(OC)c(OC)c(OC)c4)n3)C2)c1 (stereo not drawn) [GSK1379767A] | 
6 | +++ | - |  | CN(C)CCOc1ccc(-c2nc(-c3ccncc3)c(-c3ccc4c(c3)CC/C4=N\O)[nH]2)cc1 [SB-590885-AAE] | Ki ([8]; read-out: Brd4 FP Ki, competition with BODIPY-BI2536, 156 nM Brd4): 0.4 ± 0.23 µM; Brd4 ΔTm [9]: 5.1 ± 0.4 °C
7 |  |  | selective for Brd4 over BPTF | Cc1cnc(Nc2ccc(OCCN3CCCC3)cc2)nc1Nc1cccc(S(=O)(=O)NC(C)(C)C)c1 [TG-101348, reference compound] | 

Row | SMILES | Brd4 19F NMR [3] | BPTF 19F NMR [6] | selectivity between BPTF and Brd4 by PrOF NMR (in words) [6] | other results
8 | CCn1c(-c2nonc2N)nc2c(C#CCN)ncc(OCCCN)c21 [GSK561866B] | - | ++ (a resonance from the protein in question has been perturbed by 2 standard deviations in either chemical shift or linewidth) | highly selective for BPTF | 
9 | Oc1ccc(-c2nc(-c3ccncc3)c(-c3ccc(F)cc3)[nH]2)cc1 [SB-202190, reference compound] |  |  | selective for Brd4 over BPTF | 
10 | CCc1ccc(Oc2nccc(-c3c(-c4ccc(F)cc4)ncn3C3CCNCC3)n2)cc1 [SB-242719] | +++ | + (a resonance from the protein in question has been perturbed by 1 standard deviation in either chemical shift or linewidth) |  | Ki [8]: 13 ± 3 µM; fold weaker affinity ([8]; relative to SB-284851-BT (1)): 40 fold
